Measurements from PMC11984905, “Chiral Switch of Gadopiclenol: New Standards in MRI Probes” (Advanced Science, 2025).

Assay: Kinetic inertness: dissociation of Gd(III)-complexes in 0.01–1.0 M HCl followed by HPLC
Type: physicochemical
Conditions: for acid-catalyzed dissociation, times slower than Gd(III)-complex with BT-DO3A / acid-catalyzed dissociation, times slower than Gd(III)-complex with HP-DO3A: ratio of k1; for k d at pH = 7.4: dissociation rate calculated at pH 7.4, 25 °C; for k1: proton-assisted dissociation, 25 °C, [H+]≤0.15 M: [Na+]+[H+]=0.15 M
Text: The kinetic inertness of the Gd(III)‐complexes with the different isomers formed by rac‐L1 and rac‐L2 was characterized by the rates of the dissociation reactions taking place in 0.01–1.0 M HCl solution. The dissociation reactions were followed by measuring the integral values of the Gd(III)‐complexes with the different isomers of rac‐L1 and rac‐L2 ligands with HPLC. The conditions of the HPLC experiments for the kinetic studies of the Gd(III)‐complexes with rac‐L1 and rac‐L2 ligands are summarized in Tables S1 and S2 (Supporting Information), respectively. The samples were kept at 25 °C in a well‐closed vessel. For the HPLC analysis, 100 µL samples were withdrawn from the solutions. The measurements were performed with 0.2 mM solution of Gd(III)‐complexes. The pseudo‐first‐order rate constants (k d) were calculated by fitting the HPLC integral – t data pairs to Equation (1). (1) At=Ar−Ave^−kdt+Av where A r, A v, and A t are the integral values of the reactants, the product, and reaction time t. The temperature was maintained at 25 °C and the ionic strength of the solutions was kept constant at [H^+]≤0.15 M, [HCl]+[NaCl] = 0.15 M. The calculation of the kinetic parameters was performed by the fitting of the absorbance – time and relaxation rate – time data pairs with the Micromath Scientist computer program (version 2.0, Salt Lake City, UT, USA).
The dissociation reactions of Gd(III)-complexes with the different isomers formed by rac-L1 and rac-L2 have been studied by HPLC method (Tables S1 and S2) at 25 °C in 0.01 – 1.0 M HCl solution to guarantee the pseudo-first-order kinetic condition. Area values as a function of time for the dissociation reactions of Gd(III)-complexes formed with the different stereoisomers of rac-L1 obtained at 25 °C in 1.0 M HCl solution are shown in Figure S48.
In the presence of HCl excess, the decomplexation of Gd(III)-complexes can be treated as a pseudo-first-order process and the reaction rate can be expressed by Equation (S9), where kd is a pseudo-first-order rate constant, [GdL]t and [GdL]tot are the concentrations of the GdL species at time t and the total concentration of the complex, respectively.
The rates of the dissociation reactions have been studied at different concentrations of HCl ([HCl]=0.01 – 1.0 M, 25 °C). The kd values obtained for the Gd(III)-complexes with the different isomers of rac-L1 and rac-L2 ligands as a function of [H^+] are shown in Figures S49 and S50.
The obtained kd pseudo-first order rate constants are directly proportional to the concentration of H^+. The increase in the kd values with increasing concentration of H^+ can be interpreted in terms of the proton assisted dissociation of Gd(III)-complexes. […] The proton assisted dissociation of Gd(III)-complexes might be explained by the equilibrium formation of a protonated *Gd(HL) intermediate (Equation (S11)), which dissociates spontaneously (Equation (12)).
where k0, and k1 = kGdHL×K^HGdHL are the rate constants characterizing the spontaneous and proton-assisted dissociation of Gd(III)-complexes. The protonation constant (K^HGdHL) of Gd(DOTA)-like complexes are very small (Gd(DOTA): K^HGdHL =14).^[22] By considering very low protonation constant of Gd(III)-complexes with A, C and D isomers of rac-L1 and A’, C’ and D’ isomers of rac-L2 ligands (K^HGdHL<<10), the denominator of Equation (S14) (1>> K^HGdHL [H^+]) can be neglected, so Equation (S14) can be simplified in the form of Equation (S15). The k0 and k1 values of the Gd(III) complexes with A, C and D isomers of rac-L1, and A’, C’ and D’ isomers of rac-L2 ligands have been calculated by fitting of the kinetic data (Figures S49 and S50) to Equation (S15).
The k1 rate and logK^HGdHL protonation constants characterizing the acid-catalyzed decomplexation of Gd(III)-complexes formed with the different stereoisomers of rac-L1 and rac-L2 are presented and compared with those of [Gd(PCTA)], [Gd(DOTA)]^-, [Gd(HP-DO3A)] and [Gd(BT-DO3A)] in Table S19.

With `O=C(O)CCC(C(=O)O)N1CCN(C(CCC(=O)O)C(=O)O)Cc2cccc(n2)CN(C(CCC(=O)O)C(=O)O)CC1` (stereo not drawn) [ent‐L1] the “acid-catalyzed dissociation, times slower than Gd(III)-complex with BT-DO3A” value was 24 times and the “acid-catalyzed dissociation, times slower than Gd(III)-complex with HP-DO3A” value was 207 times.
In the case of `O=C(CCC(C(=O)O)N1CCN(C(CCC(=O)NCC(O)CO)C(=O)O)Cc2cccc(n2)CN(C(CCC(=O)NCC(O)CO)C(=O)O)CC1)NCC(O)CO` (stereo not drawn) [ent‐L2], the “acid-catalyzed dissociation, times slower than Gd(III)-complex with BT-DO3A” value is reported as 7 times and the “acid-catalyzed dissociation, times slower than Gd(III)-complex with HP-DO3A” value is reported as 66 times.
In the case of `O=C([O-])CCC(C(=O)[O-])N1CCN(C(CCC(=O)[O-])C(=O)[O-])Cc2cccc(n2)CN(C(CCC(=O)[O-])C(=O)[O-])CC1.[Gd+3]` (racemic) [[Gd(ent‐L1)]^3−], the “k d at pH = 7.4” value (listed as RRR/SSS (C)) is reported as “RRR/SSS (C): 5.61 × 10^−14 s^−1”, the “k d at pH = 7.4” value (listed as [Gd(rac-L1)] C (RRR/SSS)) is reported as 5.61×10^-14 s^−1 and the k1 is reported as “(1.4±0.1) ×10^-6 M^-1s^-1”.
In the case of `O=C(CCC(C(=O)[O-])N1CCN(C(CCC(=O)NCC(O)CO)C(=O)[O-])Cc2cccc(n2)CN(C(CCC(=O)NCC(O)CO)C(=O)[O-])CC1)NCC(O)CO.[Gd+3]` (stereo not drawn) [[Gd(ent‐L2)]], the “k d at pH = 7.4” value (listed as RRR/SSS (D′)) is reported as “RRR/SSS (D′): 1.74 × 10^−13 s^−1”, the “k d at pH = 7.4” value (listed as [Gd(rac-L2)] D’ (RRR/SSS)) is reported as 1.74×10^-13 s^−1 and the k1 is reported as “(4.4±0.2) ×10^-6 M^-1s^-1”.
